# Tested on: STZ high-blood-glucose rats
# Test: Efficacy test: blood glucose in streptozotocin (STZ) induced high-blood-glucose rats
# Format: in vivo
# Settings: STZ model male SD rats, mean ± SD, n = 10
# Method: Sixty of male SD rats with SPF grade, weighed 200-220 g. Tested drugs (TL-1, TL-2 and TL-3) were powder of the extract respectively prepared by Examples 3, 8 and 9. SD rats were fasted overnight after one-week adaptation, intraperitoneal and injected a solution of 2% (W/V) STZ prepared with […] citric acid buffer solution (pH 4.4) (65 mg/kg). Three days later, the blood was sampled from tail vein to assay blood glucose. Those animals with blood glucose level equal to or higher than 16.7 mmol/L were considered to be successful model. The modeled rats were randomly divided into model group, Metformin (125 mg/kg) group and different treatment groups (corresponding to 15.5 g crude drugs/kg). After one-week adaptation and the blood glucose detection, rats were administered by gastric infusion, once a day. All of the drugs were diluted with physiological saline to prepare into suspension for administration. Animals were free to access of food and water during the 15-day testing period. At the seventh and fourteenth day after administration, the rats were fasted for two hours after administration. Respectively, blood was sampled from tail vein to assay blood glucose with blood glucose meter (one-touch ultra). At the same time, the body weights of the rats were measured. Results were expressed as mean±SD ( X±SD), and t-test was used to evaluate the significant difference of measurement data between two groups.
# [1] = gastric infusion once a day, Metformin 125 mg/kg, TL 15.5 g crude drugs/kg, fasted 2 h, tail vein blood
smiles,measurement,setting,value
CN(C)C(=N)N=C(N)N [Metformin],Blood glucose level before administration,baseline before gastric infusion,21.61 ± 2.066 mmol/L
same,"Blood glucose level, 14 days after administration",[1],17.54 ± 1.222 mmol/L
same,"blood glucose level, 7 days after administration",[1],18.64 ± 0.783 mmol/L

# From patent US8637092B2, “Pharmaceutical composition for treating diabetes and its process for preparation” (Tasly Pharmaceutical Group Co., Ltd., priority 2007, dated 2014)
